The structures appear in SMILES notation.

The assay concerns Plasmodium falciparum. Description: GSK_TCMDC: Inhibition of Plasmodium falciparum 3D7 in whole erythrocytes, using parasite LDH activity as an index of growth. The class given is functional, organism-based. Particulars: Plasmodium falciparum, 3D7.
`COc1ccc2c(N/N=C/c3ccc([N+](=O)[O-])cc3)ccnc2c1` gave an XC50 of 0.337 µM. The value for `COc1c(C)[nH]c(C)c(-c2ccc(Oc3cccc(C(F)(F)F)c3)cc2)c1=O` was 0.314 µM; that for `COc1ccc2nc(C)cc(Nc3ccc(Oc4ccc(Cl)cc4)c(Cl)c3)c2c1` was 0.191 µM; that for `Cc1[nH]c(C)c(-c2ccc(-c3ccccc3F)nc2)c(=O)c1Br` was 0.401 µM. Then `CCCCCCN1CCC(CNCc2cccc([N+](=O)[O-])c2)CC1`, with 0.72 µM; and `CC[C@H](N/C(=N\c1cccc(Cl)c1Cl)Nc1ccc(C#N)cc1O)c1ccccc1`, with 0.815 µM; and `Cc1cc(N2CCCC2)nc(Nc2ccc(NC(=O)C(C)Oc3ccccc3)cc2)n1` (stereo not given), with 1.14 µM.

Turning to `Cc1ccc2nc3ccccc3c(NCCN3CCN(C)CC3)c2c1`, the XC50 is 0.587 µM. The value for `COc1ccc2nccc([C@@H](O)CN3CCC(NC(=O)C(=Cc4ccc(Cl)cc4Cl)c4ccc(-c5ccccc5)cc4)CC3)c2c1` was 0.993 µM; that for `COC(=O)c1cc(C(=O)CN(Cc2ccccc2)C(C)C)ccc1O` was 0.183 µM; that for `Cn1c(Nc2cc(C(C)(C)C)on2)nc2cc(Nc3ccnc(Nc4cccc(S(=O)(=O)N5CCOCC5)c4)n3)ccc21` was 0.533 µM.

On to `COC(=O)CN(C(=O)/C=C/c1ccc(Cl)c(Cl)c1)C1CCC(CN2CCC(c3c[nH]c4ccccc34)CC2)CC1` (stereo not given), for which the XC50 is 0.507 µM. Then `O=C(Nc1ccc2ccccc2c1)N1CCC(NCc2cccc([N+](=O)[O-])c2)CC1`, with 0.855 µM; and `Cc1ccc(N2CCN(C(=O)c3cccc(-c4cncc5nc(-c6ccco6)n(C)c45)c3)CC2)nc1`, with 0.596 µM; and `O=C(Nc1ccccc1Br)c1cn(-c2ccccc2)nc1-c1cccc([N+](=O)[O-])c1`, with 1.32 µM. The value for `Cc1cc(NC2CCCC2)nc(Nc2ccccc2C)n1` was 1.35 µM. Molecule `CCOc1ccc(-c2nonc2NC(=O)CC(C)C)cc1OCC` displayed an XC50 of 0.977 µM.

The molecule `O=C(Nc1nc2cc(S(=O)(=O)NCc3ccc(Cl)c(Cl)c3)ccc2n1CCCN1CCCC1)c1ccc(Cl)cc1` had an XC50 of 0.939 µM. Turning to `O=C(NCCN1CCC(c2ccncc2)CC1)c1ccc(Nc2nccc(Nc3ccc(Oc4ccccc4)cc3)n2)cc1`, the XC50 was 0.724 µM. Then `COc1ccc(CCc2ccc(-c3c(C)[nH]c(C)c(Cl)c3=O)cc2)cc1`, with 0.0152 µM; and `O=S(=O)(NCCN1CCCC1)c1ccc(-c2ccc(CNCc3ccc(F)cc3)cc2)cc1F`, with 1.28 µM; and `COc1ccc2nccc([C@@H](O)CN3CCC(NCC4COc5ccccc5O4)CC3)c2c1` (stereo not given in full), with 0.247 µM. Then `Cc1nn(-c2ccccc2)nc1C(=O)N(Cc1ccc(-c2ccc(CNCCc3ccc(S(C)(=O)=O)cc3)cn2)cc1)C(C)CN(C)C` (stereo not given), with 0.682 µM; and `CC(CNc1nc(NCC(c2ccccc2)c2ccccc2)c2nc[nH]c2n1)c1ccccc1` (stereo not given), with 0.948 µM. Then `Cc1ccc(Nc2nc(C)cc(NC3CCN(C)CC3)n2)cc1`, with 0.497 µM; and `N=C(N)NCCCC(=O)NCC(N)=O`, with 0.165 µM.

`COc1cc2nc(N3CCC(CNC(=O)c4ccc(-c5ccc(-c6noc(C)n6)cc5C)cc4)CC3)nc(N)c2cc1OC` displayed an XC50 of 0.215 µM. The value for `Cc1cc(N)ncc1-c1ccc(NC(=O)Nc2cc(C(F)(F)F)ccc2F)cc1` was 0.698 µM; that for `O=S(=O)(c1ccc2cc[nH]c2c1)N1CCC[C@@H]1CCN1CCC(c2c[nH]c3cnccc23)CC1` was 1.02 µM.

As for `FC(F)(F)c1cccc(CCNc2nccc(NCc3ccc(Cl)cc3Cl)n2)c1`, the XC50 amounted to 0.858 µM. The value for `COc1ccc(NC(=O)/C=C/c2ccccc2Cl)cc1OCCN1CCC(c2nc3ccccc3[nH]2)CC1` was 0.858 µM. Then `O=C(Nc1ccc(C(=O)Oc2cccc3ccccc23)cc1)N[C@@H](Cc1ccc(O)cc1)C(=O)NC1CCN(Cc2ccc(O)cc2)C1` (stereo not given in full), with 0.906 µM; and `CCCCCCCN(Cc1ccc(OC(C)(C)C(=O)OCC)cc1)C(=O)Cc1ccc(F)cc1F`, with 1.03 µM; and `CC(C)COc1ccc(Cl)cc1Nc1nc(-c2nc3ccccc3[nH]2)cs1`, with 0.877 µM. Then `O=C(NCCCCN1CCC(c2ccc(OC(F)(F)F)cc2)CC1)c1ccc(NC(=O)c2ccc(Cl)cc2)cc1`, with 0.629 µM; and `O=S(=O)(NCCN1CCCC1)c1cccc(-c2ccc(CNC3Cc4ccccc4C3)cc2)c1`, with 0.66 µM; and `COc1ccccc1CNC(=O)c1ccc(N2CCN(c3ccncc3)CC2)cn1`, with 1.36 µM. Turning to `Cc1cnc(C(=O)Nc2cccc(-c3cccc(-c4nc5cc(F)ccc5[nH]4)c3)c2)cn1`, the XC50 was 0.771 µM. The molecule `Fc1ccc2[nH]c(-c3ccc(-c4ccc(CNCC5CCCO5)cc4)cc3)nc2c1` (stereo not given) gave an XC50 of 0.44 µM. On to `COc1ccc(C2C(C(=O)Nc3ccc(C)cc3Br)c3ccccc3C(=O)N2C)cc1` (stereo not given), for which the XC50 is 0.941 µM. Then `Cc1nc(-c2cccc(Nc3nccc(NCC(O)c4cccc(C(F)(F)F)c4)n3)c2)cs1` (stereo not given), with 0.627 µM; and `CN(C)CCNC(=O)[C@H](Cc1ccccc1)NC(=O)c1ccc(O)c(-c2ccc(Cl)c(Cl)c2)c1`, with 0.715 µM. The value for `COc1ccc(/N=[N+](\[O-])c2ccccc2/[N+]([O-])=N/c2ccc(OC)cc2)cc1` was 0.987 µM; that for `CCCCOc1ccc(C(O)C(CN2CCCCC2)c2ccccc2)cc1` (stereo not given) was 0.893 µM; that for `Cc1cccc2nc(-c3ccc(-c4cccc(NC(=O)Nc5ccccc5)c4)cc3)[nH]c12` was 0.715 µM. The value for `Cc1ccc(NC(=O)c2ccc3ncccc3c2)cc1OC1CCN(CCC(C)C)CC1` was 0.694 µM. The molecule `O=C(N[C@H]1CCN(Cc2ccc(OC3CCN(Cc4ccccc4)CC3)cc2)C1)c1ccc(Cl)c(Cl)c1` showed an XC50 of 0.728 µM. The value for `CCCCCCCN1CC[C@@H](CCC(O)c2ccnc3ccc(OC)cc23)[C@@H](CC)C1` (stereo not given in full) was 0.754 µM. `Cc1cccc2nc(-c3cccc(-c4cccc(CNCCc5ccncc5)c4)c3)[nH]c12` had an XC50 of 0.139 µM. Then `CCOC(=O)c1ccc2[nH]c(-c3ccc(C(=O)NCc4ccc(C(C)(C)C)cc4)cc3)nc2c1`, with 0.847 µM.

The molecule `Cn1cc(CN2CCC(OC(c3ccccc3)c3ccc(Cl)cc3)CC2)cn1` (stereo not given) registered an XC50 of 0.839 µM. The value for `COc1cc(-c2cc3cc(Cl)c(Cl)cc3[nH]2)ccc1C(=O)NCCC1CCCN1C` (stereo not given) was 0.969 µM. Then `CC1(C)NC(N)=NC(=N)N1OCCCOc1ccccc1Cl`, with 0.0032 µM; and `CCn1c(-c2nonc2N)nc2c(-c3cccc(NC(=O)Nc4ccccc4Cl)c3)ncc(OCCCN)c21`, with 0.671 µM; and `COCCNCc1cccc(-c2ccc3c(Nc4cc(O)c(Cl)cc4F)ccnc3c2)c1`, with 0.114 µM. Then `O=C(Nc1cccc(-c2cccc(CN3CCCC3)c2)c1)c1ccc(Cl)cc1`, with 0.684 µM. Take `COCCN1CCC(CNCC(C)(C)c2nc(-c3ccc(Cl)c(O)c3)c(-c3ccncc3)[nH]2)CC1`: the XC50 was 0.753 µM.

In turn, `N#CCOc1c(C2CCN(CCCCNC(=O)c3ccc(-c4ccc(C(F)(F)F)cc4)cc3)CC2)ccc2c1CCCC2` showed an XC50 of 0.762 µM.

The molecule `Cc1cc(-c2ccnc(Nc3cccc(C#N)c3)n2)cc(C)c1O` yielded an XC50 of 0.924 µM. The value for `CCN1CCN(C(=O)NC(C(=O)N2CCCC(COc3ccc(Cc4ccccc4)cc3)C2)c2cccs2)C(=O)C1=O` (stereo not given) was 0.479 µM.

The molecule `O=C(Cc1ccc(Nc2nccc(Nc3cccc4[nH]ncc34)n2)cc1)Nc1ccc(C(F)(F)F)cc1` gave an XC50 of 0.888 µM. Then `c1ccc(CN2CCC(NCc3ccccc3-c3cccc(CNCc4ccc5c(c4)OCO5)c3)CC2)cc1`, with 0.573 µM; and `COc1cc(NC(=O)c2sc(-c3ccc(Cl)cc3)cc2NC(=O)CN2CCCC2)ccc1OCCN1CCCC1`, with 0.927 µM; and `COc1ccc(CN2CCN(C(=O)c3cccs3)CC2)c(O)c1`, with 0.838 µM. Then `COc1cc(Nc2nccc(N3CCC(NS(=O)(=O)c4ccc(NC(C)=O)cc4)CC3)n2)cc(OC)c1OC`, with 0.965 µM; and `COc1cc(SC)c(Br)cc1-c1nc2ccncc2[nH]1`, with 1.1 µM. Then `CCn1c(-c2nonc2N)nc2c(-c3cccc(NC(=O)Nc4cccc(OC)c4)c3)ncc(OCCCN)c21`, with 0.769 µM. `CN1CCN(CCCN(C(=O)Nc2cc(C(F)(F)F)cc(C(F)(F)F)c2)c2ccccc2Cc2ccccc2)CC1`: the XC50 worked out at 1.13 µM. Then `COc1ccc2ccc(OC)c(CNCCCCCCNCc3c(OC)ccc4ccc(OC)cc34)c2c1`, with 0.699 µM; and `CCOC(=O)C(CO)NC(=O)c1ccc([N+](=O)[O-])o1` (stereo not given), with 0.289 µM; and `Cc1ccc2oc3cc(-c4nnn[nH]4)ccc3c(=O)c2c1`, with 0.0894 µM. The value for `Cc1ccc(CN2CCN(c3cc4c(cc3Cl)CCN4C(=O)Cc3ccc(NC(=O)c4ccc(C(F)(F)F)cc4)cc3)CC2)cc1` was 0.935 µM.

The molecule `O=C1C(c2ccccc2)=C(Nc2cccc([N+](=O)[O-])c2)c2ccccc21` had an XC50 of 0.892 µM. Then `O=C(Nc1cccnc1)c1cc(C(=O)Nc2cccnc2)cc([N+](=O)[O-])c1`, with 1.12 µM; and `CCCNC[C@@H](O)[C@H](Cc1ccccc1)NC(=O)c1cc2c3c(c1)c(CC)cn3CCS(=O)(=O)N2C`, with 0.101 µM. The value for `CCCc1cn2c3c(cc(C(=O)N[C@@H](Cc4ccccc4)[C@H](O)CNC4CCCCC4)cc13)N(C)S(=O)(=O)CC2` was 0.0669 µM. `COc1cc(Cc2c(C)nc3nc(N)nc(N)c3c2C)c(Br)c(OC)c1OC` yielded an XC50 of 0.404 µM. Then `N=C(Nc1ccccc1)Nc1cccc(Cc2ccc([N+](=O)[O-])cc2)n1`, with 0.945 µM. The value for `Cc1cccc2nc(-c3cccc(-c4cccc(NC(=O)CC5NC(=O)c6ccccc65)c4)c3)[nH]c12` (stereo not given) was 1.03 µM. Then `O=C(Nc1cccc(Cl)c1)N(CCCn1ccnc1)Cc1csc(-c2ccc(CNCc3ccccc3)cc2)n1`, with 0.538 µM. `COC(C(=O)OCCC1CCCN1C)(c1ccccc1)c1ccccc1` (stereo not given): the XC50 turned out to be 0.97 µM. The value for `CC(C)CNC(=O)c1ccnc(-c2ccc(CNC3Cc4ccccc4C3)cc2)c1` was 0.79 µM; that for `O=C(CCC1CCCCC1=O)c1ccccc1` (stereo not given) was 0.766 µM; that for `O=C(Nc1ccc(S(=O)(=O)NCCCN2CCOCC2)cc1)c1cc(-c2ccccc2)[nH]n1` was 0.769 µM.

`c1ccc(CCNCc2cccc(-c3ccccc3CNCc3ccc4c(c3)OCO4)c2)nc1`: the XC50 was found to be 0.968 µM.

Source of the values: ChEMBL document CHEMBL1157539, “Thousands of chemical starting points for antimalarial lead identification” (Nature, 2010).
